Experiment in all cases: whole plant or invertebrate
Format in all cases: in vivo

For assay [1], the system named is Boll Weevil (Anthonomus grandis). The note with it: eggs sprayed with 20 μl test solution, 3 to 5 days. The procedure:
1. Activity Against Boll Weevil (Anthonomus grandis)
The active compounds were formulated in 1:3 DMSO:water. 10 to 15 eggs were placed into microtiterplates filled with 2% agar-agar in water and 300 ppm formaline. The eggs were sprayed with 20 μl of the test solution, the plates were sealed with pierced foils and kept at 24-26° C. and 75-85% humidity with a day/night cycle for 3 to 5 days. Mortality was assessed on the basis of the remaining unhatched eggs or larvae on the agar surface and/or quantity and depth of the digging channels caused by the hatched larvae. Tests were replicated 2 times.

Assay [2] deals with Tobacco Budworm (Heliothis virescens). The note with it: 144 h, eggs sprayed with 10 μl test solution, 6 days. On the procedure:
2. Activity Against Tobacco Budworm (Heliothis virescens)
The active compounds were formulated in 1:3 DMSO:water. 15 to 25 eggs were placed into microtiterplates filled with diet. The eggs were sprayed with 10 μl of the test solution, the plates were sealed with pierced foils and kept at 27-29° C. and 75-85% humidity under fluorescent light for 6 days. Mortality was assessed on the basis of the agility and of comparative feeding of the hatched larvae. Tests were replicated 2 times.

Assay [3] concerns Southern Armyworm (Spodoptera Eridania), 2Nd Instar Larvae. The note with it: in Phaseolus lunatus, foliar, 96 h, leaf dip, at 4 days, read-out: mortality in comparison with untreated controls. The procedure:
3. Activity Against Southern Armyworm (Spodoptera Eridania), 2Nd Instar Larvae
The active compounds were formulated for testing the activity against insects and arachnids as a 10.000 ppm solution in a mixture of 35% acetone and water, which was diluted with water, if needed.
A Sieva lima bean leaf was dipped in the test solution and allowed to dry. The leaf was then placed in a plastic perforated zip enclosure bag and ten 2nd instar larvae were added. At 4 days, observations are made of mortality and reduced feeding.

Assay [4] concerns diamond back moth (plutella xylostella). The note with it: foliar, cabbage leaf disk dip, third instar larvae, after 72 h, read-out: mortality in comparison with untreated controls. The procedure: 6. Activity against diamond back moth (plutella xylostella)
The active compounds were formulated in 50:50 acetone:water and 0.1% (vol/vol) Alkamuls EL 620 surfactant. A 6 cm leaf disk of cabbage leaves was dipped in the test solution for 3 seconds and allowed to air dry in a Petri plate lined with moist filter paper. The leaf disk was inoculated with 10 third instar larvae and kept at […] and 50-60% humidity for 3 days. Mortality was assessed after 72 h of treatment.

Molecules are shown by their SMILES. Where only a bound is given, the exact number is not on record here.

For orientation: mortality means the percentage killed. For the molecule `FC(F)(F)c1ccc(OCCCCCCOc2cc(Cl)cc(OCC=C(Cl)Cl)c2)nc1` [I.2, 2-{6-[3-chloro-5-(3,3-dichloro-allyloxy)-phenoxy]-hexyloxy}-5-trifluoromethylpyridine], the mortality at 2500 ppm in assay [1] and in assay [2] was above 75% throughout. Further, the results for the mortality at 300 ppm in assay [3] and in assay [4] were at least 80% and at least 75%, respectively.

The record behind these values is patent publication US20090209598A1, “Resorcine Derivatives and Their Use as Pesticides” (priority 2005, published 2009).
